# Measured values as given in US20030083374A1, “NAALADase inhibitors useful as pharmaceutical compounds and compositions” (priority 1998, published 2003).
# Columns and labels:
# [1] = test system: streptozotocin (STZ)-induced peripheral diabetic neuropathy; assay: in vivo STZ-induced peripheral diabetic neuropathy model, plantar test; parameters: species or system Male Sprague-Dawley rats; conditions: 50 mg/kg i.p. once per day, following 5 days of dosing
# Protocol: NAALADase inhibition in an in vivo streptozotocin (STZ)-induced peripheral diabetic neuropathy model was studied. Male Sprague-Dawley rats weighing 200-250 g were rendered diabetic by intravenous injection of 60 mg/kg STZ into the tail vein. Plasma glucose levels were determined 3 weeks after STZ administration. Only STZ-animals with plasma glucose levels>300 mg/dL (17 mM) were used in the study. Thermal pain threshold and withdrawal latency were used to assess the status of the small dorsal root ganglion (DRG) sensory neurons. Pain was monitored using the plantar test (Hargreaves' Method) using a Basile Plantar apparatus built by Ugo Basil, Vaarese, Italy.
# At two months following the STZ administration, the diabetic animals were hyperalgesic as compared to non-diabetic controls as determined by their difference in withdrawal latency. At this time, the rats were administered either the NAALADase inhibitor Compound 2 (50 mg/kg) or vehicle intraperitoneally once per day for 20 days. Thermal pain responses were measured at days 3, 5, 12 and 19 post-dosing. […] This difference was maintained throughout the observation period.
# [2] = test system: BB/W diabetic rats; assay: nerve conduction velocity in BB/W diabetic rats; type: in vivo, Male BB/W rats; conditions: 10 mg/kg daily; starting at 8 weeks, through six months
# Excerpt: Male BB/W rats (BR1, Mass) spontaneously develop a cell mediated autoimmune destruction of pancreatic B cells, resulting in onset of insulin-dependent (Type I) diabetes (Guberski 1994). […] This renders them valuable for experimental trials of new compounds for future treatments of this major disorder. In the present study, Compound 1 and Compound 2 were examined for their ability to alter the progression of diabetic neuropathy. The rats received daily injection of Compound 1 or Compound 2 (10 mg/kg i.p.) or vehicle, starting at the onset of diabetes (hyperglycemia) and up to 6 months thereafter. Another group of non-diabetic rats also receiving vehicle were tested. All animals were continuously monitored for body weight, urine volume, blood sugar and glycated haemoglobin. In the first month of the study, all animals were tested for thermal nociception in a Hargreaves apparatus, weekly. After the first month this was done biweekly and then monthly. The testing consists of directing an infrared heat source onto the […] surface of the rat hindpaw and noting the time taken for the animal to remove its paw (for detailed method see Hargreaves et al. 1998). […]
# Nerve conduction velocity was also measured every two weeks through the first eight weeks of treatment and every month thereafter through to the six months of treatment (see De Koning et al. 1987 for method details). […]
# [3] = test system: STZ-induced diabetic rats; assay: in vivo assay on neuropathic pain in STZ-diabetic rats (Hargreaves); parameters: species or system Male Sprague-Dawley rats; conditions: 10 mg/kg i.p. daily, started 45 days post-STZ
# Protocol: (§1) Male Sprague-Dawley rats (200-225 g) were rendered diabetic by intravenous administration of streptozotocin (STZ, 70 mg/kg in phosphate buffered saline). Diabetic animals were divided into five groups: one group receiving Compound 2 (10 mg/kg or 1 mg/kg), Compound 1 (10 mg/kg or 1 mg/kg) or vehicle. Another group of animals (non-STZ treated) served as non-diabetic controls. Drug/vehicle treatment was started in diabetic animals 45 days post-STZ administration. STZ-induced diabetic rats were tested for sensitivity to a heat source as soon as blood glucose levels rose to 320 mg/dl or above (30 days post STZ). The rats were then acclimated to the Hargreaves apparatus and thermal nociception was monitored using an infrared heat source directed into the […] surface of the hindpaw, and the time taken for the animal to remove its paw noted to the nearest 0.1 seconds (see Hargreaves et al. 1998 for detailed method). The intensity of the beam source was adjusted such that the mean latency for control animals (non-STZ treated) was approximately 10 seconds. Each animal was tested 8 times and the mean difference score (between mean non-diabetic control latency and mean diabetic latency) are graphically presented in FIGS. 19A and 19B.
# [4] = test system: BB/W diabetic rats; assay: progression of neuropathic pain in BB/W diabetic rats, thermal nociception; type: in vivo, Male BB/W rats; conditions: 10 mg/kg i.p. daily; starting after 4 weeks, through six months
# Excerpt: Male BB/W rats (BR1, Mass) spontaneously develop a cell mediated autoimmune destruction of pancreatic B cells, resulting in onset of insulin-dependent (Type I) diabetes (Guberski 1994). […] This renders them valuable for experimental trials of new compounds for future treatments of this major disorder. In the present study, Compound 1 and Compound 2 were examined for their ability to alter the progression of diabetic neuropathy. The rats received daily injection of Compound 1 or Compound 2 (10 mg/kg i.p.) or vehicle, starting at the onset of diabetes (hyperglycemia) and up to 6 months thereafter. Another group of non-diabetic rats also receiving vehicle were tested. All animals were continuously monitored for body weight, urine volume, blood sugar and glycated haemoglobin. In the first month of the study, all animals were tested for thermal nociception in a Hargreaves apparatus, weekly. After the first month this was done biweekly and then monthly. The testing consists of directing an infrared heat source onto the […] surface of the rat hindpaw and noting the time taken for the animal to remove its paw (for detailed method see Hargreaves et al. 1998). Each animal was tested 8 times and the mean withdrawal latency noted.
# [5] = test system: STZ-diabetic animals; assay: motor and sensory nerve conduction velocity in STZ-diabetic animals; type: in vivo, rats; conditions: 10 mg/kg daily
# Protocol: as §1
# Motor and sensory nerve conduction velocity was also measured in STZ-diabetic animals after 4, 8 and 12 weeks of treatment (see De Koning and Gispen 1987 for detailed method). Briefly, stimulating needle electrodes were inserted close to the sciatic and tibial nerves with recording electrodes being placed subcutaneously over the distal foot muscles, in anesthetized rats.
# [6] = test system: Dorsal root ganglia-Schwann cell co-cultures; assay: in vitro myelination in dorsal root ganglia-Schwann cell co-cultures; type: cell-based
# Excerpt: The inventors hypothesized that NAALADase may play a role in signaling myelin formation and inhibition of NAALADase may facilitate myelination. To test this hypothesis, the inventors examined the effects of several NAALADase inhibitors in a well established in vitro model system of myelination. Dorsal root ganglia-Schwann cell co-cultures were established as previously described (Einheber et al., J. Cell. Biol., Vol. 123, p. 1223). Following 7 days in co-culture, myelination was initiated following the addition of serum and ascorbic acid with various doses of NAALADase inhibitors (1 nM to 10 μM) or progesterone (20 nM; positive control). The extent of myelination was examined between days 14-21 using immunocytochemical staining for myelin basic protein (MBP), a known myelin marker.
# [7] = test system: PCP-treated rats; assay: in vivo assay on schizophrenia (PCP model); conditions: 50 mg/kg i.p. before PCP (5 mg/kg)
# Protocol: Rats treated with PCP develop symptoms, such as frantic running and incessant head-turning, that parallel psychotic symptoms in humans. Thus, to examine the effects of NAALADase inhibition on schizophrenia, rats were treated intraperitoneally with Compound 1 (50 mg/kg), Compound 2 (50 mg/kg) or a vehicle (H2O) before they received PCP (5 mg/kg). Head rolling scores were measured for over 2 hours following PCP injection.
# [8] = test system: acetic acid (0.6%) induced writhing; assay: acetic acid model of pain (writhing); type: in vivo, mice; conditions: pretreated
# Excerpt: One source of neuronal glutamate is thought to derive from the abundant neuropeptide NAAG which is hydrolyzed by NAALADase to liberate free glutamate. The inventors hypothesized that inhibition of NAALADase could limit pain by preventing this source of glutamate. To test this hypothesis, the inventors examined the possible antinocipetive effects of several NAALADase inhibitors in the formalin-, acetic acid- and chronic constrictive injury (CCI; “Bennett model”) models of pain. […] On day 7, 5% formalin was injected into the dorsum of the rat's hindpaw.
smiles,measurement,setting,value
"O=C(O)CCC(CP(=O)(O)Cc1c(F)c(F)c(F)c(F)c1F)C(=O)O (stereo not shown) [Compound 2, 2-[[(2,3,4,5,6-pentafluorobenzyl)hydroxyphosphinyl]methyl]-pentanedioic acid]",withdrawal latency vs. vehicle animals,[1],significant increase
same,nerve conduction deficits vs. diabetic controls receiving vehicle,[2],significantly less severe nerve conduction deficits
same,hyperalgesic response in diabetic rats,[3],completely reversed
same,withdrawal latencies vs. diabetic vehicle-treated rats,[4],longer withdrawal latencies
same,sensory nerve conduction velocity,[5]; after 8 weeks,significant improvement
same,motor nerve conduction velocity,[5]; after 12 weeks,significant improvement
same,immunostaining of MBP,"[6]; 1 nM, two week treatment",significant increase
same,extent of myelination vs. maximal doses of ascorbic acid and progesterone,"[6]; high dose, 1 μM",greater extent of myelination
same,locomotor-activating effects of PCP (head rolling scores),[7],significantly reduced
same,acetic acid (0.6%) induced writhing vs. vehicle control,[8],significantly attenuated
